In patent publication US7880010B2, “Crystalline forms of a dimethylphenyl compound” (Theravance, Inc., priority 2006, dated 2011):

Experiments:
Assay in all cases: Radioligand binding assay for muscarinic receptors ([3H]-NMS displacement)
[1] = molecular target: T1, hM2 muscarinic receptor (Homo sapiens, UniProt P08172); conditions: M2 muscarinic receptor subtype, CHO cell membranes, [3H]-NMS 1 nM
T1 construct: expressed in transfected cells; host or cells: CHO / CHO-K1
T1 sequence (P08172 1-466): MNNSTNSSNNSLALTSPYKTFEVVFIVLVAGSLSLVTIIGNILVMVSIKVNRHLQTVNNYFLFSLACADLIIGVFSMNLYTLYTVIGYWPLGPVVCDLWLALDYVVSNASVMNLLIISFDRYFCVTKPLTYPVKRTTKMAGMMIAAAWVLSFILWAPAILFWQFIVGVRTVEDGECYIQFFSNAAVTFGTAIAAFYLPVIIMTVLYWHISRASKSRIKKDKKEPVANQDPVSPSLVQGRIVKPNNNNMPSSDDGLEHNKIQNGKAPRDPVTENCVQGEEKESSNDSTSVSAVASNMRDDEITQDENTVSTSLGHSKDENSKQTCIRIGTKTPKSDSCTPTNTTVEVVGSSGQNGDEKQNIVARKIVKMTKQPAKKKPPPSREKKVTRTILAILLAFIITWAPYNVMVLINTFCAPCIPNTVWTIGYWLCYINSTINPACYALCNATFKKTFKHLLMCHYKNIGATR
Protocol: (§1) CHO cell lines stably expressing cloned human hM1, hM2, hM3 and hM4 muscarinic receptor subtypes, respectively, were grown to near confluency in Hams F-12 media supplemented with 10% FBS and 250 μg/mL Geneticin. The cells were grown in a 5% CO2, 37° C. incubator and lifted with 2 mM EDTA in dPBS. Cells were collected by 5 minute centrifugation at 650×g, and cell pellets were either stored frozen at −80° C. or membranes were prepared immediately for use. For membrane preparation, cell pellets were resuspended in lysis buffer and homogenized with a Polytron PT-2100 tissue disrupter (Kinematica AG; 20 seconds×2 bursts). Crude membranes were centrifuged at 40,000×g for 15 minutes at 4° C. The membrane pellet was then resuspended with re-suspension buffer and homogenized again with the Polytron tissue disrupter. The protein concentration of the membrane suspension was determined by the method described in Lowry et al., 1951, Journal of Biochemistry, 193, 265. All membranes were stored frozen in aliquots at −80° C. or used immediately. Aliquots of prepared hM5 receptor membranes were purchased directly from PerkinElmer, Inc. (Wellesley, Mass.) and stored at −80° C. until use.
(§2) Radioligand binding assays for cloned muscarinic receptors were performed in 96-well microtiter plates in a total assay volume of 100 μL. CHO cell membranes stably expressing either the hM1, hM2, hM3, hM4 or hM5 muscarinic subtype were diluted in assay buffer to the following specific target protein concentrations (μg/well): 10 μg for hM1, 10-15 μg for hM2, 10-20 μg for hM3, 10-20 μg for hM4, and 10-12 μg for hM5 to get similar signals (cpm). The membranes were briefly homogenized using a Polytron tissue disrupter (10 seconds) prior to assay plate addition. Saturation binding studies for determining KD values of the radioligand were performed using L-[N-methyl-^3H]scopolamine methyl chloride ([^3H]-NMS) (TRK666, 84.0 Ci/mmol, Amersham Pharmacia Biotech, Buckinghamshire, England) at concentrations ranging from 0.001 nM to 20 nM. Displacement assays for determination of Ki values of test compounds were performed with [^3H]-NMS at 1 nM and eleven different test compound concentrations. The test compounds were initially dissolved to a concentration of 400 μM in dilution buffer and then serially diluted 5× with dilution buffer to final concentrations ranging from 10 pM to 100 μM. The addition order and volumes to the assay plates were as follows: 25 μL radioligand, 25 μL diluted test compound, and 50 μL membranes. Assay plates were incubated for 60 minutes at 37° C. Binding reactions were terminated by rapid filtration over GF/B glass fiber filter plates (PerkinElmer, Inc.) pre-treated in 1% BSA. Filter plates were rinsed three times with wash buffer (10 mM HEPES) to remove unbound radioactivity. The plates were then air-dried and 50 μL Microscint-20 liquid scintillation fluid (PerkinElmer, Inc.) were added to each well. The plates were then counted in a PerkinElmer Topcount liquid scintillation counter (PerkinElmer, Inc.). Binding data were analyzed by nonlinear regression analysis with the GraphPad Prism Software package (GraphPad Software, Inc., San Diego, Calif.) using the one-site competition model. Ki values for test compounds were calculated from observed IC50 values and the KD value of the radioligand using the Cheng-Prusoff equation (Cheng Y; Prusoff W H. (1973) Biochemical Pharmacology, 22(23):3099-108). […]

[2] = molecular target: T2, hM1 muscarinic receptor (Homo sapiens, UniProt P11229); conditions: M1 muscarinic receptor subtype, CHO cell membranes, [3H]-NMS 1 nM
T2 construct: expressed in transfected cells; host or cells: CHO
T2 sequence (P11229 1-460): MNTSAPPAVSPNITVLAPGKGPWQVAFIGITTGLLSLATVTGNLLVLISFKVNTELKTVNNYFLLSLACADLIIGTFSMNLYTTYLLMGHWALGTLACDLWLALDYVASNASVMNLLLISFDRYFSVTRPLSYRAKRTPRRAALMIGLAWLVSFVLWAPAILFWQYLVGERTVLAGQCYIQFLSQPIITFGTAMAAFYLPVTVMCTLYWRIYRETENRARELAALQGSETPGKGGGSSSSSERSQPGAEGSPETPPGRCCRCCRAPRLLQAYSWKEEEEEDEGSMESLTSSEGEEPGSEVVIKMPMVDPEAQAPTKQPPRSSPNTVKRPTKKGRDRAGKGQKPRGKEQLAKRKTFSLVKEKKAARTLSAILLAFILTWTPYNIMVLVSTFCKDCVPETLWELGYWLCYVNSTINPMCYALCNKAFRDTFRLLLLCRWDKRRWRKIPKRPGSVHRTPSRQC
Protocol: as §1, §2

[3] = molecular target: T3, hM3 muscarinic receptor (Homo sapiens, UniProt P20309); conditions: M3 muscarinic receptor subtype, CHO cell membranes, [3H]-NMS 1 nM
T3 construct: expressed in transfected cells; host or cells: CHO
T3 sequence (P20309 whole entry): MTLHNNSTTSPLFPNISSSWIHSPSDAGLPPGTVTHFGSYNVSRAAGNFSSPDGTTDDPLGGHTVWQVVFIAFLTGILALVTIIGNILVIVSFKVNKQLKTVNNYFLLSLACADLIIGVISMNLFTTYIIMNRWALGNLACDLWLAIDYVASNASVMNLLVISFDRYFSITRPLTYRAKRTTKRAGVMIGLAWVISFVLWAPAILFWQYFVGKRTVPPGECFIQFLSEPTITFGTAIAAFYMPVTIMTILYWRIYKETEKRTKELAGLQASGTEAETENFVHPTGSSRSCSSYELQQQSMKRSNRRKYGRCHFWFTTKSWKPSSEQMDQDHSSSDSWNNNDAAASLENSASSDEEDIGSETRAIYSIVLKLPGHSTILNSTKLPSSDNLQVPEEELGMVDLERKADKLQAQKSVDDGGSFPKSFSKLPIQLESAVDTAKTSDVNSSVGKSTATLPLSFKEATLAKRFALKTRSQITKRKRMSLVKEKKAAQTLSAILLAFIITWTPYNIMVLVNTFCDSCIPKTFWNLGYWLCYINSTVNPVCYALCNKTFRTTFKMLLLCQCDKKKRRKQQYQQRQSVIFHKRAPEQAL
Protocol: as §1, §2

Measured: Ki

Cc1cc(NC(=O)CCN2CCC(OC(=O)Nc3ccccc3-c3ccccc3)CC2)c(C)cc1CNC[C@H](O)c1ccc(O)c(NC=O)c1 [compound of formula I, biphenyl-2-ylcarbamic acid 1-[2-(4-{[(R)-2-(3-formylamino-4-hydroxyphenyl)-2-hydroxyethylamino]methyl}-2,5-dimethylphenylcarbamoyl)ethyl]-piperidin-4-yl ester]
< 10 nM: all assays above
